Among the data in PubChem BioAssay (NCI) are GI50 and TGI values, retold here.

Test in all cases: DTP human tumour cell line panel, 48 h
Assay [1] has as its system A549 NSCLC.
In assay [2] the test system is EKVX NSCLC.
The subject of assay [3] is HL-60(TB) leukemia.
Assay [4] concerns IGROV1 ovarian.
Assay [5] has as its system MDA-MB-231 breast.
For assay [6], the system named is MDA-MB-435.
The test system of assay [7] is SF-539 CNS.
Assay [8] deals with SK-OV-3 ovarian.
In assay [9] the test system is TK-10 renal.
Assay [10] concerns SK-MEL-2 melanoma.

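How tested: cells in 96-well plates exposed to compound for 48 hours at five concentrations. Abbreviation: GI50, concentration required for 50% inhibition of growth. At the TGI there is no net growth.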

On to `O=c1c2ccccc2nc2n1CCc1c-2[nH]c2cc3c(cc12)OCO3`, for which the GI50 (in general, the concentration at which growth is held to half of that of the control) in [1] was more than 25 µM. For the same compound, the TGI in assay [1], in assay [2], in assay [3], in [4], in assay [5] and in assay [6] was more than 25 µM in each case. Also, the TGI in assay [7], in assay [8] and in assay [9] was more than 25 µM in each case.
Take `CCC(C)C(=O)O[C@H]1C(=O)O[C@@H]2C[C@H]3C(C)=CC(=O)[C@@H](O)[C@]3(C)[C@H]3[C@@H](O)[C@H](O)[C@@]4(C)OC[C@]32[C@@H]14` (stereo partly drawn): the TGI (as a rule, the concentration at which net growth stops) in [1] was 10.7 µM; in assay [3] it was less than 0.01 µM; in assay [4], 0.0889 µM; in [5], 0.388 µM; in assay [6] it was less than 0.01 µM; in assay [7], 0.0334 µM. The TGI is less than 0.0507 µM in [10], 0.58 µM in assay [8] and less than 0.0389 µM in assay [9].
Consider `O=c1c2cccc(F)c2sc2c(NCCCNCCO)nc3ccccc3c12`, for which the GI50 in [1] is 1.13 µM; in assay [2] it was 1.29 µM; in [3] it was 1.92 µM; in assay [4] it was 1.23 µM; in [5], 1.26 µM; in assay [6] it was 1.63 µM. Further, the GI50 in assay [7] is 1.65 µM; in [10], 1.97 µM; in assay [9], 1.96 µM. Besides, the TGI in assay [1] is 3.08 µM; in assay [2], 2.64 µM; in [3], 3.91 µM; in assay [4], 2.65 µM; in [5] it was 2.65 µM; in assay [6] it was 3 µM. Besides, the TGI in assay [7] was determined as 3.05 µM; in assay [10] it was 3.95 µM; in assay [9], 3.57 µM.
For the compound `NC(CP(=O)(O)O)C(=O)O` (stereo not drawn), the TGI in assay [1], in assay [2], in assay [3], in assay [4], in assay [5] and in [6] was more than 100 µM each time. In addition, the TGI in assay [10], in assay [8] and in assay [9] was more than 100 µM in each case.
With `Cc1cc(O[C@@H]2O[C@@H](C)[C@H](O)[C@@H](O)[C@H]2O)c2c3c(c(O[C@@H]4O[C@@H](C)[C@H](O)[C@@H](O)[C@H]4O)cc2c1)C(=O)c1c(O)cccc1C3=O`, the GI50 in assay [1], in assay [2], in [3], in assay [4], in [5] and in assay [6] was more than 30 µM throughout. Besides, the GI50 in assay [7], in assay [10] and in assay [8] was more than 30 µM throughout. The TGI in assay [1], in [2], in [3], in [4], in assay [5] and in assay [6] was more than 30 µM in each case. The TGI in assay [7], in assay [10] and in assay [8] was more than 30 µM in each case.
As for `COc1ccc(C2=NN(C=O)C(c3ccc(OS(=O)(=O)c4ccc(C)cc4)c(OC)c3)C2)cc1` (stereo not drawn), the GI50 in assay [1] is 9.42 µM; in assay [3] it was 2.56 µM; in [4], 18.8 µM; in [5] it was 5.52 µM; in [6], 2.4 µM; in assay [7], 8.62 µM. Further, the GI50 in assay [10] was 3.52 µM; in assay [8] it was 8.88 µM; in [9], more than 100 µM. In addition, the TGI in assay [1] was more than 100 µM; in [3], more than 100 µM; in [4], more than 100 µM; in assay [5] it was more than 100 µM; in assay [6] it was 9.97 µM; in assay [7] it was more than 100 µM. Also, the figures for the TGI in [10], in [8] and in assay [9] were 38.6 µM, more than 100 µM and more than 100 µM, respectively.
Turning to `COc1ccc(N=N/C(=N\NC(=O)c2cc(Br)ccc2O)c2ccc(N(CCC#N)CCC#N)cc2OC)cc1`, the GI50 in assay [1] was 77.1 µg/mL; in [2], more than 150 µg/mL; in assay [3] it was 56.7 µg/mL; in assay [4], 39.6 µg/mL; in [5], 70.8 µg/mL; in [6], more than 150 µg/mL. The GI50 in [7] was 80.8 µg/mL; in assay [10] it was 95.8 µg/mL; in [8], 80.6 µg/mL. Further, the TGI in assay [1], in [2], in [3], in assay [4], in [5] and in [6] was more than 150 µg/mL each time. Further, the TGI in assay [7], in assay [10] and in assay [8] was more than 150 µg/mL each time.
In the case of `CN1C(=O)/C(=C2\S/C(=N\c3nnc(-c4ccccc4)o3)NC2=O)c2ccccc21`, the GI50 in [1] was 43.9 µM; in assay [2] it was more than 100 µM; in assay [4] it was 59.9 µM; in [5], more than 100 µM; in assay [6], more than 100 µM; in [7] it was more than 100 µM. In addition, the GI50 in [10], in assay [8] and in [9] was more than 100 µM in each case. The TGI in [1], in assay [2], in [4], in assay [5], in assay [6] and in assay [7] was more than 100 µM throughout. The TGI in [10], in [8] and in assay [9] was more than 100 µM each time.
As to `c1ccc(COCC[P+](c2ccccc2)(c2ccccc2)c2ccccc2)cc1`, the GI50 was 0.584 µM in assay [1]; 0.29 µM in assay [3]; 1.08 µM in [4]; 2.36 µM in assay [5]; 0.601 µM in assay [6]; 2.4 µM in [7]. In addition, the results for the GI50 in [10] and in assay [8] were 1.93 µM and 2.33 µM, respectively. Moreover, the TGI in assay [1] worked out at 10.1 µM; in assay [3], 1.39 µM; in [4], 11.9 µM; in assay [5] it was 14.2 µM; in assay [6], 6.28 µM; in assay [7], 14.5 µM. Also, the TGI in [10] was found to be 4.96 µM; in assay [8], 9.93 µM.
As for `CCCCOC(=O)/C=C\C(=O)NC(N)=O`, the GI50 in assay [1] was 34.3 µM; in [2] it was 23.1 µM; in assay [3], 22.8 µM; in assay [4], 20.4 µM; in assay [5], 17.9 µM; in [6], 24.7 µM. The GI50 in assay [7] was 24.6 µM; in assay [8] it was 44.9 µM. In addition, the total growth inhibition concentration (TGI) was more than 100 µM in assay [1]; 56.9 µM in assay [2]; 49.9 µM in assay [3]; 54.3 µM in assay [4]; 42.6 µM in assay [5]; 85 µM in [6]. Also, the TGI in [7] is 70 µM; in assay [8] it was more than 100 µM.
As for `COc1cccc(CCNC(=O)CC(c2ccccc2)(c2ccccc2)c2ccccc2)c1`, the GI50 in assay [1] was 4.11 µM; in assay [2], 22.7 µM; in [3] it was 17.5 µM; in assay [5], more than 100 µM; in assay [6], 6.5 µM; in assay [10], 4.41 µM. Moreover, the GI50 in assay [8] was more than 100 µM; in assay [9], 21.9 µM. Moreover, the TGI in assay [1] is 96.5 µM; in assay [2], more than 100 µM; in [3] it was more than 100 µM; in assay [5] it was more than 100 µM; in assay [6], more than 100 µM; in [10], more than 100 µM. Moreover, the TGI was more than 100 µM in [8] and 82.2 µM in assay [9].
`Nc1c(C(=O)c2ccc(C#CCN3CCOCC3)cc2)cnn1-c1ccc(F)cc1`: the GI50 in assay [1], in assay [3], in assay [4], in [5], in assay [6] and in assay [7] was more than 25 µM each time. The GI50 in assay [10], in assay [8] and in assay [9] was more than 25 µM each time. For the same compound, the TGI in assay [1], in assay [3], in assay [4], in assay [5], in assay [6] and in assay [7] was more than 25 µM throughout. The TGI in [10], in assay [8] and in assay [9] was more than 25 µM throughout.
`COc1ccc(NC(=S)C#N)cc1`: the TGI in assay [1], in [3], in assay [5], in assay [6], in [7] and in assay [10] was more than 100 µM each time. For the same compound, the TGI in assay [8] and in [9] was more than 100 µM in each case.
As to `O=C1CC(C(=O)O)Cc2c(Br)ccc(O)c21` (stereo not drawn), the TGI in [1], in assay [2], in assay [3], in assay [4], in assay [5] and in assay [6] was more than 100 µM in each case. For the same compound, the TGI in assay [10], in assay [8] and in assay [9] was more than 100 µM in each case.
In the case of `CCSc1nc(NC(C)c2ccccc2)c2cnn(CO)c2n1` (stereo not drawn), the GI50 in [1] was more than 100 µM; in assay [3], more than 100 µM; in [4], more than 100 µM; in [5], 61.8 µM; in [6], 21.1 µM; in assay [7], 94.4 µM. The GI50 was more than 100 µM in assay [10], 45.8 µM in assay [8] and 47.7 µM in [9]. Further, the TGI in [1], in assay [3], in assay [4], in assay [5], in assay [6] and in assay [7] was more than 100 µM throughout. Further, the TGI in [10], in [8] and in assay [9] was more than 100 µM in each case.
For `O=C(Nc1ccn(C2CC(I)C(COC(c3ccccc3)(c3ccccc3)c3ccccc3)O2)c(=O)n1)c1ccccc1` (stereo not drawn), the TGI in assay [1] was determined as 21.5 µM; in [2], 21.5 µM; in [3], 21.5 µM; in [4], 21.5 µM; in assay [5], 17.9 µM; in assay [6] it was 15.7 µM. Moreover, the TGI in assay [7] came out at 18.4 µM; in assay [8] it was 21.5 µM; in assay [9], 21.5 µM.
Consider `Cc1cncc(-c2nc(NCCc3c[nH]c4ccccc34)c3ncn(C(C)C)c3n2)c1`, for which the GI50 in [1] was 4.28 µM; in assay [2], 6.77 µM; in [4], 5.94 µM; in assay [5], 4.3 µM; in assay [6], 4.6 µM; in assay [7] it was 3.64 µM. Moreover, the GI50 in assay [10] is 2.83 µM; in assay [8], 5.76 µM; in assay [9] it was 10.3 µM. Moreover, the TGI in [1] is more than 100 µM; in assay [2], 35.5 µM; in assay [4], 22.1 µM; in assay [5], 17.6 µM; in assay [6] it was 17 µM; in assay [7], 12.4 µM. Moreover, the TGI in assay [10] came out at 9.8 µM; in assay [8], 35.7 µM; in assay [9] it was 52.8 µM.
For `C[C@@H]1CC[C@H]2[C@@H](C)C(OC/C=C/COC3O[C@@H]4O[C@@]5(C)CC[C@H]6[C@H](C)CC[C@@H]([C@H]3C)[C@@]46OO5)O[C@@H]3O[C@@]4(C)CC[C@@H]1[C@]32OO4` (stereo partly drawn), the GI50 is less than 0.0161 µM in [1]; 16 µM in [2]; less than 0.01 µM in [3]; 0.77 µM in [4]; less than 0.0269 µM in assay [5]; 0.0161 µM in assay [6]. Also, the GI50 was 0.773 µM in assay [10], 19.5 µM in assay [8] and less than 0.0104 µM in [9]. Moreover, the TGI in assay [1] was more than 68.3 µM; in [2] it was more than 100 µM; in assay [4] it was 38 µM; in assay [5], 1.11 µM; in assay [6], 25.1 µM; in assay [10] it was more than 100 µM. Also, the TGI in [8] was more than 100 µM; in assay [9] it was 24.8 µM.
